Measurements as given in patent US20150313928A1, “NEW APPLICATION OF CATALPOL” (SUZHOU YOUSEEN NEW PHARMACY DEVELOPMENT CO., LTD., priority 2012, published 2015).

How the values were obtained:
Format in all cases: in vivo, Kunming mice
[1] = test system: mice in the hyperthyroidism model group; assay: Observation of appearance and behavior of the mice; conditions: in words, as compared with the model group; daily observation
Protocol: (§1) The successfully modeled mice are randomized into 5 groups (10 mice per group), that is, the hyperthyroidism model group, the catalpol low dosage group, the catalpol medium group, the catalpol high dosage group, and the methimazole group, plus the blank group (10 mice). The catalpol low dosage group is administered 30mg/kg catalpol, the catalpol medium dosage group 60 mg/kg, the catalpol high group 90 mg/kg and the methimazole group 7.5 mg/kg methimazole, all by gastric infusion, while the blank group and the hyperthyroidism group are administered equal amount of distilled water, once per day, for 20 consecutive days. With the exception of the blank group, each mouse in each group continues to be administered 350 ug/kg levothyroxine sodium by means of subcutaneous injection each day. Animals were observed and recorded daily for their general status, including mental status, color and hair change, appearance and behavior. In addition, every two days, record is taken of their food intake.

[2] = test system: mice in the hyperthyroidism model group; assay: Measurement of heart indexes of the mice; parameters: HWI / LVWI: unit not given here; conditions: for HWI: heart weight index = HW/BW; for HWI / LVWI: 20 days; for LVWI: left ventricular weight index = LVW/BW
Protocol: (§2) The successfully modeled mice are randomized into 5 groups (10 mice per group), that is, the hyperthyroidism model group, the catalpol low dosage group, the catalpol medium group, the catalpol high dosage group, and the methimazole group, plus the blank group (10 mice).
(§3) The catalpol low dosage group is administered 30mg/kg catalpol, the catalpol medium dosage group 60 mg/kg, the catalpol high group 90 mg/kg and the methimazole group 7.5 mg/kg methimazole, all by gastric infusion, while the blank group and the hyperthyroidism group are administered equal amount of distilled water, once per day, for 20 consecutive days. With the exception of the blank group, each mouse in each group continues to be administered 350 ug/kg levothyroxine sodium by means of subcutaneous injection each day.
A mouse is sacrificed its heart instantly taken out for measurement of its heart weight (HW) and (left ventricular weight (LVW). Heart weight index (HWI=HW/BW) and left ventricular weight index (LVWI=LVW/BW) is calculated at conclusion the experiment.

[3] = test system: mice in the hyperthyroidism model group; assay: Measurement of heart rate of the mice (electrocardiogram)
Protocol: as §1, with “All the mice are suspended of food without suspension of water for 12 hours one day prior to the last medication” for “Animals were observed”, “heart rate is measured 3 hours later. Heart rate (HR) is calculated via the electrocardiogram, statistics is then conducted,” for “recorded daily for their general status, including mental status, color”, “differences are compared.” for “hair change, appearance and behavior. In addition, every two days, record is taken of their food intake.”

[4] = test system: mice in the hyperthyroidism model group; assay: Measurement of the level of thyroid hormone of serum (radioimmunoassay); conditions: for FT3 / FT4 / T3 / T4: serum, 20 days
Protocol: as §2, §3
A mouse is suspended of food without suspension of water for 12 hours subsequent to the last medication, and blood is taken from its eye ball, put in centrifugation for 15 minutes at 3500 r/min, serum is pumped out for measurement of T3, T4, FT3, and FT4 by means of radioimmunoassay. For detailed operations, see the instruction manual.

[5] = test system: mice in the hyperthyroidism model group; assay: Measurement of mice weight change; conditions: for BW2 − BW1: body weight difference; for BW2 − BW1 / BW2: 20 days; for BW2: post-treatment body weight, levothyroxine sodium 350 ug/kg s.c. daily; for BW1: pre-treatment body weight
Protocol: as §2, §3
A mouse is suspended of food without suspension of water for 12 hours starting at 8 o'clock one day prior to the first medication, and all the mice are taken of their body weight (BW) the next day, that is, the pre-treatment body weight (BW1); the mouse is suspended of food without suspension of water for 12 hours starting at 8 o'clock of the day of the last medication, its body weight (BW) is taken the next day, that is, the post-treatment body weight (BW2); the difference of the pre-treatment body weight and the post-treatment body weight is calculated to compare the change of the body weight of the mice among each group.

[6] = test system: mice in the hyperthyroidism model group; assay: Measurement of the oxygen consumption of the mice; conditions: for Decrease in oxygen content: measured two days prior to the last medication, 21% minus residual oxygen
Protocol: as §2, §3
Oxygen consumption is measured two days prior to the last medication. The specific method is: take a model CY-3 digital oxygen meter and install therein an oxygen electrode. Connect, perform zero adjustment, and repeat until the instrument is stable for use. Take a 500 ml bottle, fix its outward connecting pipe with a rubber cover, seal with Vaseline. The rubber cover is connected via a tee, and a shift in the tee is selectable for connection or disconnection with outer space. A mouse is placed inside the bottle, and the mouth of the bottle is instantly covered with a wood plug to shut off air from the inner flask. The filtering flask is horizontally placed on the experiment table, and timing of 20 minutes After 20 minute, 10 ml air from the bottle was taken out by a injector and rapidly injected into a connector of the CY-3 type digital oxygen analyzer with the oxygen analyzer indicating oxygen content of the pumped in air. The data, when stable, is recorded as the residual oxygen value, then the oxygen consumption (20 min, 10 ml)=21%—residual oxygen value (%). (21% oxygen in air).

[7] = catalpol 30 mg/kg gastric infusion once per day
[8] = catalpol 60 mg/kg gastric infusion once per day
[9] = catalpol 90 mg/kg gastric infusion once per day

OC[C@H]1O[C@@H](O[C@@H]2OC=C[C@H]3[C@H](O)[C@@H]4O[C@]4(CO)[C@@H]23)[C@H](O)[C@@H](O)[C@@H]1O [Catalpol]
appearance and behavior of the mice [1]: quieter and have reduced symptoms of dysphoria, excitability, and drier and darker hair | HWI [2, 7]: 5.912 | HWI [2, 8]: 5.650 | HWI [2, 9]: 5.58 | heart weight index ([2]; in words, compared with the model group, catalpol medium and high dosage and methimazole significant): decreased heart weight index to some extent | left ventricular index ([2]; in words, compared with the model group, catalpol medium and high dosage significant (P<0.01)): decreased left ventricular index to some extent | LVWI [2, 7]: 1.786 | LVWI [2, 8]: 1.625 | LVWI [2, 9]: 1.582 | Heart rate ([3]; catalpol 30 mg/kg gastric infusion once per day, 20 days, levothyroxine sodium 350 ug/kg s.c. daily): 507.56 times/min | Heart rate ([3]; catalpol 60 mg/kg gastric infusion once per day, 20 days, levothyroxine sodium 350 ug/kg s.c. daily): 538.75 times/min | Heart rate ([3]; catalpol 90 mg/kg gastric infusion once per day, 20 days, levothyroxine sodium 350 ug/kg s.c. daily): 529.63 times/min | Heart rate ([3]; in words, compared with the model group, catalpol 30, 60, 90 mg/kg groups, methimazole 7.5 mg/kg): decreased heart rate to some extent | T3 level in the serum ([4]; in words, compared with the model group, catalpol 30, 60, 90 mg/kg groups, methimazole 7.5 mg/kg, P<0.05): decreased T3 level in the serum to some extent | FT3 level in the serum ([4]; in words, compared with the model group, catalpol low P<0.01, medium, high and methimazole P<0.05): decreased FT3 level in the serum to some extent | FT4 level in the serum ([4]; in words, compared with the model group, only catalpol low dosage significant (P<0.05)): decreased FT4 level in the serum to some extent | T4 level in the serum ([4]; in words, compared with the model group, only methimazole difference significant (P<0.05)): decreased T4 level in the serum to some extent | FT3 [4, 7]: 7.49 ng/mL | FT4 [4, 7]: 22.87 ng/mL | T3 [4, 7]: 3.84 ng/mL | T4 [4, 7]: 181.02 ng/mL | FT3 [4, 8]: 8.22 ng/mL | FT4 [4, 8]: 23.77 ng/mL | T3 [4, 8]: 3.52 ng/mL | T4 [4, 8]: 179.90 ng/mL | FT3 [4, 9]: 7.56 ng/mL | FT4 [4, 9]: 24.02 ng/mL | T3 [4, 9]: 3.50 ng/mL | T4 [4, 9]: 178.50 ng/mL | BW2 − BW1 [5, 7]: 9.00 g | BW2 − BW1 [5, 8]: 10.10 g | BW2 − BW1 [5, 9]: 10.15 g | body weight increase ([5]; in words, compared with the model group, catalpol groups, methimazole 7.5 mg/kg): more body weight increase to some extent | BW2 [5, 7]: 36.40 g | BW2 [5, 8]: 37.80 g | BW2 [5, 9]: 37.75 g | BW1 ([5]; catalpol 30 mg/kg group): 27.40 g | BW1 ([5]; catalpol 60 mg/kg group): 27.70 g | BW1 ([5]; catalpol 90 mg/kg group): 27.60 g | Decrease in oxygen content ([6]; catalpol 30.0 mg/kg gastric infusion once per day): 8.88 %, 20 min | Decrease in oxygen content ([6]; catalpol 60.0 mg/kg gastric infusion once per day): 9.03 %, 20 min | Decrease in oxygen content [6, 9]: 8.81 %, 20 min | oxygen consumption ([6]; in words, compared with the model group, catalpol low (30 mg/kg) and high (90 mg/kg) dosage groups, methimazole 7.5 mg/kg): significantly decreased oxygen consumption
